From patent US20200255714A1, “HYDROFLUOROEPOXIDE CONTAINING COMPOSITIONS AND METHODS FOR USING SAME” (3M INNOVATIVE PROPERTIES COMPANY, priority 2017, published 2020)

Key:
Format in all cases: physicochemical
[1] = Kinematic viscosity by Ubbelohde capillary viscometer
Method: Kinematic Viscosity was measured using glass SCHOTT Ubbelohde capillary viscometers (Xylem, Inc., Germany). The viscometers were timed using a SCHOTT AVS 350 viscosity timer. For a temperature of 10° C., a Lawler temperature control bath was used (Lawler Manufacturing Corp., Edison, N.J., US). The viscometer measurement stand and glass viscometer were immersed in a temperature-controlled liquid bath filled with NOVEC 7500 (3M Company, Saint Paul, Minn., US) as the bath fluid. The Lawler temperature bath was fitted with a copper tubing coil for liquid nitrogen cooling with fine temperature control provided by the bath's electronic temperature control heater. The fluid was mechanically stirred to provide uniform temperature in the bath. The bath controlled temperature to within ±0.1° C., as measured by the built-in resistance temperature detector (RTD) temperature sensor. The sample liquid was added to the viscometer between the two fill lines etched on the viscometer. The AVS-350 automatically pumped the sample fluid above the upper timing mark, then released the fluid and measured the efflux times between the upper and lower timing marks. The fluid meniscus was detected by optical sensors as it passed each timing mark. The sample was drawn up and measured repeatedly, averaging multiple measurements. The glass viscometers were calibrated using Canon certified kinematic viscosity standard fluids to obtain a calibration constant (centistokes per second) for each viscometer. The measured kinematic viscosity (centistokes), was calculated as the average efflux time (seconds) times the constant (centistokes/second) for the viscometer used.

[2] = Vapor pressure by stirred-flask ebuilliometer method (ASTM E 1719-97)
Method: Vapor Pressure was measured using the stirred-flask ebuilliometer method described in ASTM E 1719-97 “Vapor Pressure Measurement by Ebuilliometry.” This method is also referred to as “Dynamic Reflux.” The method uses a 50-mL glass round-bottom flask. Vacuum was measured and controlled using a J-KEM vacuum controller (J-KEM Scientific, Saint Louis, Mo., US). The pressure transducer was calibrated on the day of measurement by comparison with full vacuum and with an electronic barometer. The procedure was to begin slowly heating the material, then vacuum was applied until boiling occurred and a steady drop wise reflux rate was established. Pot temperature and pressure reading were recorded, then the vacuum controller was set for a higher absolute pressure and the material was heated further until a new reflux point was established. The pressure level was raised in increments until the vapor pressure curve was obtained up to the atmospheric boiling point. The boiling point of PE1 at 760 mmHg was 238.3° C.

[3] = Chemical stability with absorbents at 65° C. (GC-FID); settings: 16 hours, initial starting material 99.6
Method: The chemical stability was evaluated by charging a weighed amount of Preparatory Example PE1 into glass vials and then adding a weighed amount of absorbent. The samples were stirred with heating at 65° C. for 16 hours and then analyzed by GC-FID to determine whether any breakdown products were formed and whether the level of purity changed.

[4] = Thermal stability under air sparging at elevated temperature (GC analysis); settings: 72 hour stir at 215° C.-220° C., sparging by air 0.4 L/min
Method: To a 3-neck 250 mL round bottom flask equipped with a water-cooled condenser, temperature probe, magnetic stir bar, and a ⅛ inch FEP tube connected to 10 micron steel frit was charged 2,3-bis(3,3,4,4,5,5,5-heptafluoro-2,2-bis(trifluoromethyl)pentyl) oxirane (70.4 g, 99 mmol). Sparging by air through the 10 micron steel frit at a rate of 0.4 L/min commenced and the internal temperature was slowly raised to 220° C. with stirring. After a 72 hour stir with the temperature held between 215° C.-220° C., the material was allowed to cool to room temperature.

FC(F)(F)C(F)(F)C(F)(F)C(CC1OC1CC(C(F)(F)F)(C(F)(F)F)C(F)(F)C(F)(F)C(F)(F)F)(C(F)(F)F)C(F)(F)F (stereo not shown) [PE1, 2,3-bis(3,3,4,4,5,5,5-heptafluoro-2,2-bis(trifluoromethyl)pentyl)oxirane]
Kinematic Viscosity ([1]; 10.0 ° C.): 146.42 cSt
Kinematic Viscosity ([1]; 25.0 ° C.): 36.22 cSt
Kinematic Viscosity ([1]; 30.0 ° C.): 25.87 cSt
Kinematic Viscosity ([1]; 40.0 ° C.): 14.49 cSt
Vapor pressure ([2]; 20 ° C.): 0.026 mmHg
Vapor pressure ([2]; 55 ° C.): 0.35 mmHg
Vapor pressure ([2]; 78.6 ° C.): 1.5 mmHg
Vapor pressure ([2]; 170.7 ° C.): 96.6 mmHg
Vapor pressure ([2]; 204.3 ° C.): 296.9 mmHg
Vapor pressure ([2]; 214.7 ° C.): 397.1 mmHg
Vapor pressure ([2]; 237.7 ° C.): 731.3 mmHg
boiling point ([2]; at 760 mmHg): 238.3 °C
GC-FID purity (%) ([3]; 4 Å molecular sieves): 99.6%
GC-FID purity (%) ([3]; Activated carbon): 98.4%
GC-FID purity (%) ([3]; Basic alumina): 99.7%
GC-FID purity (%) ([3]; Potassium carbonate): 99.6%
GC-FID purity (%) ([3]; Silica gel): 99.6%
content of starting material in final mixture (GC analysis) [4]: approximately 99.4%
decomposition (GC analysis) [4]: no decomposition
